This is an account of results in ChEMBL document CHEMBL3272223, “Folate analogues altered in the C9-N10 bridge region. 10-Oxafolic acid and 10-oxaaminopterin” (J Med Chem, 1976).

Active and inactive are the calls of the source. The calls are words filed in the database; no cut-off is given here.

In one assay the target is Dihydrofolate reductase (Lactobacillus casei, UniProt P00381). As to the kind of experiment: Inhibition of DCM-resistant Lactobacillus casei DHFR. Details: species or system Lacticaseibacillus casei. The following applies: read-out: I50.
Assay [1] concerns Enterococcus faecium. As to the kind of experiment: Growth inhibition of Streptococcus faecium ATCC 8043 at 5 ng/ml by turbidimetric method. The following applies: read-out: GI. The assay is classed as functional.
The target of assay [2] is Dihydrofolate reductase (Lactobacillus casei) (UniProt P00381). The assay is described as follows: Inhibition of DCM-resistant Lactobacillus casei DHFR at 0.13 mM. The following applies: Lacticaseibacillus casei.
In assay [3] the test system is Enterococcus faecium. The assay is described as follows: Growth inhibition of Streptococcus faecium ATCC 8043 at 50 ng/ml by turbidimetric method. The settings on record: read-out: GI. It is filed as functional.
The target in assay [4] is Dihydrofolate reductase (Lactobacillus casei) (UniProt P00381). The assay is described as follows: Activity at DCM-resistant Lactobacillus casei DHFR. The settings on record: Lacticaseibacillus casei.
The target is the same in assay [5]. As to the kind of experiment: Activity at DCM-resistant Lactobacillus casei DHFR relative to 7,8-dihydrofolic acid. The settings on record: Lacticaseibacillus casei.

Dihydrofolate reductase (Lactobacillus casei), sequence (P00381 whole entry): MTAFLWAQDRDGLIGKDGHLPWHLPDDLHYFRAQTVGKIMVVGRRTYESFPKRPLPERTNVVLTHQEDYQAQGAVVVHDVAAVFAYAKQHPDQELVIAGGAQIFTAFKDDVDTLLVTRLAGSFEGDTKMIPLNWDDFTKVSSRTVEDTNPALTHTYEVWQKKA
Dihydrofolate reductase, sequence (P00381 whole entry): as above

For `Nc1nc(N)c2nc(COc3ccc(C(=O)N[C@@H](CCC(=O)O)C(=O)O)cc3)cnc2n1`, on Dihydrofolate reductase, the IC50 came to 4.5 nM. In the assay with Enterococcus faecium [1], the inhibition of growth at 0.005 µg/mL amounted to 50%.

Turning to `Nc1nc(=O)c2nc(COc3ccc(C(=O)N[C@@H](CCC(=O)O)C(=O)O)cc3)cnc2[nH]1`, the inhibition entry in assay [2] was “inactive”. Further, the inhibition of growth at 0.05 µg/mL in the assay with Enterococcus faecium [3] was found to be 50%.

For `Nc1nc(=O)c2c([nH]1)NCC(COc1ccc(C(=O)N[C@@H](CCC(=O)O)C(=O)O)cc1)=N2`, in assay [2], the inhibition result is “inactive”. Also, in assay [4], the result was inactive.

Consider `Nc1nc(=O)c2c([nH]1)NCC(CSc1ccc(C(=O)N[C@@H](CCC(=O)O)C(=O)O)cc1)=N2`, for which, in assay [5], the Activity amounted to 28%.
